Reference: publication doi:10.1101/2024.08.19.608619, “Discovery of potent SARS-CoV-2 nsp3 macrodomain inhibitors uncovers lack of translation to cellular antiviral response” (bioRxiv, 2024)
Where two headings read alike, the source gives them in different places.

Experiments:
Assay in all cases: biochemical
Design in all cases: In vitro kinase panel profiling, per cent remaining kinase activity at 10 uM
Rse(h) = target: T1, Rse(h) (Homo sapiens, UniProt Q06418); settings: atp_concentration=45, read-out: % of control remaining
T1 construct: gene TYRO3
T1 sequence (Q06418 1-890): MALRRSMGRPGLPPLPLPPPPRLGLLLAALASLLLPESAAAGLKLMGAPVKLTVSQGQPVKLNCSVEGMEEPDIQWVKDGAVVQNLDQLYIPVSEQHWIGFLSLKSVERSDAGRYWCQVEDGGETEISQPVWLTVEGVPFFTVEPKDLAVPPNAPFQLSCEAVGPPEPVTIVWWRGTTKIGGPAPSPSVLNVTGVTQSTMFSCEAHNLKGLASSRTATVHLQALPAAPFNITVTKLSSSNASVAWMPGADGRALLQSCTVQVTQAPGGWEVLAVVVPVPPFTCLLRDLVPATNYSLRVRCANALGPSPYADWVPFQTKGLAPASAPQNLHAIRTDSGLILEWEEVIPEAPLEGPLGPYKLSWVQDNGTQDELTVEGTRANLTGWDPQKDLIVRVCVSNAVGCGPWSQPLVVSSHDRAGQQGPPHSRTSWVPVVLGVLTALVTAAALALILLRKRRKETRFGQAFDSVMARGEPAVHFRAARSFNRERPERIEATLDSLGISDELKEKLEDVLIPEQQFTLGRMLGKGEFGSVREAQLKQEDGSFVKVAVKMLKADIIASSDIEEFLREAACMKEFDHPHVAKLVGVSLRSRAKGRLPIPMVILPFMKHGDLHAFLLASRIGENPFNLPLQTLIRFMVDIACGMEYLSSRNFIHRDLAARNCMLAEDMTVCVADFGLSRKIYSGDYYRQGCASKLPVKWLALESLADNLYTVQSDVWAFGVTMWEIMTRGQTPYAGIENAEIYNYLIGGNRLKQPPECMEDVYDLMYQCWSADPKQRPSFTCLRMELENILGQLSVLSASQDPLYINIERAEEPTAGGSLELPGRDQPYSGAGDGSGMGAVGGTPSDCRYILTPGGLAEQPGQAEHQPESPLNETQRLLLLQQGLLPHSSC
Description: (§1) We derisk potential for off-target activity by profiling the compound in a CEREP panel, a standard secondary pharmacology assessment, as well as a kinase panel to derisk a potential hinge-binding motif in our leads, and a PARP panel to derisk activity against human […]. Reassuringly, the compounds are selective, with the only off-targets being moderate human CHRM2 and KOR receptors activity associated with ASAP-0011198.

IGF-1R(h) = target: T2, IGF-1R(h) (Homo sapiens, UniProt P08069); settings: atp_concentration=200, read-out: % of control remaining
T2 construct: gene IGF1R
Description: as §1

Fyn(h) = Fyn(h) (Homo sapiens, UniProt P06241); settings: atp_concentration=70, read-out: % of control remaining
Description: as §1

PDGFRβ(h) = target: T3, PDGFRβ(h) (Homo sapiens, UniProt P09619); settings: atp_concentration=200, read-out: % of control remaining
T3 construct: gene PDGFRB
Description: as §1

Mnk2(h) = target: T4, Mnk2(h) (Homo sapiens, UniProt Q9HBH9); settings: atp_concentration=120, read-out: % of control remaining
T4 construct: gene MKNK2
Description: as §1

[1] = target: T5, PI3 Kinase (p110β/p85α)(h) (Homo sapiens, UniProt P42338); settings: atp_concentration=200, read-out: % of control remaining
T5 construct: gene PIK3CB
Description: as §1

PAK2(h) = PAK2(h) (Homo sapiens, UniProt Q13177); settings: atp_concentration=90, read-out: % of control remaining
Description: as §1

CaMKI(h) = target: T6, CaMKI(h) (Homo sapiens, UniProt Q14012); settings: atp_concentration=200, read-out: % of control remaining
T6 construct: gene CAMK1
Description: as §1

AMPKα1(h) = target: T7, AMPKα1(h) (Homo sapiens, UniProt Q13131); settings: atp_concentration=45, read-out: % of control remaining
T7 construct: gene PRKAA1
Description: as §1

CDK1/cyclinB(h) = CDK1/cyclinB(h) (Homo sapiens, UniProt P06493); settings: atp_concentration=45, read-out: % of control remaining
Description: as §1

NEK2(h) = target: T8, NEK2(h) (Homo sapiens, UniProt P51955); settings: atp_concentration=120, read-out: % of control remaining
T8 sequence (P51955 1-445): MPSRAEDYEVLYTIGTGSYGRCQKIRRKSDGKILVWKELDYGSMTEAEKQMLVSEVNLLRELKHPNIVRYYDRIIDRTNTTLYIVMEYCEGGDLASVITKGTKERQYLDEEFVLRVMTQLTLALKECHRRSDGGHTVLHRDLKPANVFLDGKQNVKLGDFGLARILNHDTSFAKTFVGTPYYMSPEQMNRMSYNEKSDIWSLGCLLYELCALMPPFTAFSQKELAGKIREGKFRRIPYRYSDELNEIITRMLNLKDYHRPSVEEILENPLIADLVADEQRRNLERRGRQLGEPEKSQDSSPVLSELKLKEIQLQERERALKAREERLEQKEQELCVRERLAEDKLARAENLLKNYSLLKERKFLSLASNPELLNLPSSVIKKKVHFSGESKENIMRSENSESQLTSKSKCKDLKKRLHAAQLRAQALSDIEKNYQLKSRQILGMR
Description: as §1

CDK2/cyclinA(h) = CDK2/cyclinA(h) (Homo sapiens, UniProt P24941); settings: atp_concentration=45, read-out: % of control remaining
Description: as §1

T3 sequence (P09619 whole entry): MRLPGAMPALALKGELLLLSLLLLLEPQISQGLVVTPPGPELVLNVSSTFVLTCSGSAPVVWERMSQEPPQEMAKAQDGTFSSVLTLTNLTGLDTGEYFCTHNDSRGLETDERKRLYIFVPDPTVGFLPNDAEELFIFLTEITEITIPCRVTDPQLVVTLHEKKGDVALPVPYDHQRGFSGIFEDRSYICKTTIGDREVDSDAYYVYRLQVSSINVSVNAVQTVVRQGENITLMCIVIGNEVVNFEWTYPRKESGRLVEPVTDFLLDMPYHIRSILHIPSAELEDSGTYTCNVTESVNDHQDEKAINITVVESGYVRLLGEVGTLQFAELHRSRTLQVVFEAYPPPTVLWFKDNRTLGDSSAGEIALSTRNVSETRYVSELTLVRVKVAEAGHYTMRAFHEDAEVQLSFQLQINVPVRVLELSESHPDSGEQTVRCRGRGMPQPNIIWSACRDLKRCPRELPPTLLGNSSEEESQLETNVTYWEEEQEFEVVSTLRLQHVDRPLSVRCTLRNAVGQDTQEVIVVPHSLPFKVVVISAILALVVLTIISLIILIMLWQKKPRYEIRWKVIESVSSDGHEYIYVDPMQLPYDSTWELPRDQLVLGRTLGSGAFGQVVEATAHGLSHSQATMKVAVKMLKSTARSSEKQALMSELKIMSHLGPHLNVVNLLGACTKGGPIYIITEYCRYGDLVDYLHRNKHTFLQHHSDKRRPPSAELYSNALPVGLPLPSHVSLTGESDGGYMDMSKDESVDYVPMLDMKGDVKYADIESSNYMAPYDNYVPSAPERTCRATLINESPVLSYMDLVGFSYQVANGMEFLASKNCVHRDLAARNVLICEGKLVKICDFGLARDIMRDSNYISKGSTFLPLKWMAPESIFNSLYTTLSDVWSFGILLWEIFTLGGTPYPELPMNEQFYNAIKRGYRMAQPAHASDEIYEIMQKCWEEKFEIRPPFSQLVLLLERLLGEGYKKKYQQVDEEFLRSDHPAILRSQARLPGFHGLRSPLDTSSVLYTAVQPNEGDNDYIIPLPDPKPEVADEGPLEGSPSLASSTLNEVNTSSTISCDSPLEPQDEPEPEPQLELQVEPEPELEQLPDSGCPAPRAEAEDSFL
T7 sequence (Q13131 whole entry): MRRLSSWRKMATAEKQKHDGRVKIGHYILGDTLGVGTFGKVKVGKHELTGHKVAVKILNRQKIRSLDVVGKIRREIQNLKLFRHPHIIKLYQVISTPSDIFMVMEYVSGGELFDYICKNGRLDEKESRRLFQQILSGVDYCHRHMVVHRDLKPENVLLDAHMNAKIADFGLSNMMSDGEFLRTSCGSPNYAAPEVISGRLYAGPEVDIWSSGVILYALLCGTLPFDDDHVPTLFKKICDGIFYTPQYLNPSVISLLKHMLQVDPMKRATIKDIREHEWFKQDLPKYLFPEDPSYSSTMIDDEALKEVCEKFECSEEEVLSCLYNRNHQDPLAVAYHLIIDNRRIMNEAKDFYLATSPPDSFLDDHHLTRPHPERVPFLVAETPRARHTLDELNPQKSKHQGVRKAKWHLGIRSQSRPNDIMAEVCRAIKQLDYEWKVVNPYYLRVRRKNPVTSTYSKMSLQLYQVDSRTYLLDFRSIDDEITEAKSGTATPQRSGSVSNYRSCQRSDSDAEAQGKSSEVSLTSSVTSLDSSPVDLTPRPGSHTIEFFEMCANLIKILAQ
T7 sequence (P54619 whole entry partner): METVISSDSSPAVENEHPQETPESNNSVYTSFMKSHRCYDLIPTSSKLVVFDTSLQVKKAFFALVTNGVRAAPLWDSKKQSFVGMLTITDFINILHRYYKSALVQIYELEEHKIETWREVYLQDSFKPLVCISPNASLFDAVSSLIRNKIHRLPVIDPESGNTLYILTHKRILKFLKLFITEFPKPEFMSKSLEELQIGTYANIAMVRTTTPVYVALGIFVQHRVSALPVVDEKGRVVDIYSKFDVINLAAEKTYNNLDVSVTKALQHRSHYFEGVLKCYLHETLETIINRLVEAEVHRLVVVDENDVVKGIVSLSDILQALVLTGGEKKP
T7 sequence (Q9Y478 whole entry partner): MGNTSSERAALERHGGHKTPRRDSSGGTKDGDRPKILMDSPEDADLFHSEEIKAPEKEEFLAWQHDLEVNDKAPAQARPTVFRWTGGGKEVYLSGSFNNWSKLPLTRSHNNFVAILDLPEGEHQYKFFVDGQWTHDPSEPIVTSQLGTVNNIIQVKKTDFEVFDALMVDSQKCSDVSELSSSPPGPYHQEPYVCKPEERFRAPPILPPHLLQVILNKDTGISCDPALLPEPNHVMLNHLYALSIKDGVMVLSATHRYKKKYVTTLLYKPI
Sequence of CDK1/cyclinB(h) (P06493 whole entry): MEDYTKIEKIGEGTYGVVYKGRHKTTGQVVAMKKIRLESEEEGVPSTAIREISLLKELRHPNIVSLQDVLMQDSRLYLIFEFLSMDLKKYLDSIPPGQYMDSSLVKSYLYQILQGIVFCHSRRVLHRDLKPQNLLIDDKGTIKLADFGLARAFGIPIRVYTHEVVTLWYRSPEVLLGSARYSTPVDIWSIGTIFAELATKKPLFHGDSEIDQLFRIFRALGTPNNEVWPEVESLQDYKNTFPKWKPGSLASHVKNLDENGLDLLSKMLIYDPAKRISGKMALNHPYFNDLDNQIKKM
Sequence of CDK1/cyclinB(h) (P14635 whole entry partner): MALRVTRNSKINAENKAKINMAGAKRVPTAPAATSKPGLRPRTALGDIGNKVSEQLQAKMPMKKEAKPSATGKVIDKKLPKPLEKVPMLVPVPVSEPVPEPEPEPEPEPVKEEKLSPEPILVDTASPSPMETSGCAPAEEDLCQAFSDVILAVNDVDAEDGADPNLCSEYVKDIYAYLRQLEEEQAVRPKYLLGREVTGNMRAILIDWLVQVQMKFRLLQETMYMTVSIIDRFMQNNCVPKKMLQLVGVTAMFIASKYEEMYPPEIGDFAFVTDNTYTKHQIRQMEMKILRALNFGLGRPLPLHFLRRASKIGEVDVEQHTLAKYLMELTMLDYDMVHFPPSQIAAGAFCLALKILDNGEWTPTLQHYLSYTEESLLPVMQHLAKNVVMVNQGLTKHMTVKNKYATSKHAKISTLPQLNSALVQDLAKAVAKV
Sequence of Fyn(h) (P06241 whole entry): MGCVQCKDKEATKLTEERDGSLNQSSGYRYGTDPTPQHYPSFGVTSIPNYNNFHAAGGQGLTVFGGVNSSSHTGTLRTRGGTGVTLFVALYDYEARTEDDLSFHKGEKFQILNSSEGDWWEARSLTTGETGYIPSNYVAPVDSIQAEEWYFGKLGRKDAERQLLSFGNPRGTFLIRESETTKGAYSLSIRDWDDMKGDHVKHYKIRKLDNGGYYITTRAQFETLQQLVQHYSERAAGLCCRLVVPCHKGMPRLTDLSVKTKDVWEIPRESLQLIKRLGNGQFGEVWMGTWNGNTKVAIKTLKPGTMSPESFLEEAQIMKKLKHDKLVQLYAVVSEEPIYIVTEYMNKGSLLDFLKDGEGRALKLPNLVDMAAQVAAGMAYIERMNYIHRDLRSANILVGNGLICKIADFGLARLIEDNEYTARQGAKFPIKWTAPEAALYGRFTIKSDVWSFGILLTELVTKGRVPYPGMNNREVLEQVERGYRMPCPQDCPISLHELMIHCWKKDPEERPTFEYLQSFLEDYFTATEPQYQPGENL
T4 sequence (Q9HBH9 whole entry): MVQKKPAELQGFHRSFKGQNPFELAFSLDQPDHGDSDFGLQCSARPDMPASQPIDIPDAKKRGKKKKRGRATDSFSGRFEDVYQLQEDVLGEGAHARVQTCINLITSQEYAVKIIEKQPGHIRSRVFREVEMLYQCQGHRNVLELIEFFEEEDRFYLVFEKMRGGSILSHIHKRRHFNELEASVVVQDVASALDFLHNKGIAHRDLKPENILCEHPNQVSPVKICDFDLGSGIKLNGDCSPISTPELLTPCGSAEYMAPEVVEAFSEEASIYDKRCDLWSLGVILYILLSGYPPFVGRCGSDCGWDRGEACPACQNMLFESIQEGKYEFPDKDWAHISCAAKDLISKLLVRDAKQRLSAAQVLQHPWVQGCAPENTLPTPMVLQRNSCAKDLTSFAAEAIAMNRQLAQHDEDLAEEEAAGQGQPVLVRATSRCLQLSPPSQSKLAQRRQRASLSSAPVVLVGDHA
T6 sequence (Q14012 whole entry): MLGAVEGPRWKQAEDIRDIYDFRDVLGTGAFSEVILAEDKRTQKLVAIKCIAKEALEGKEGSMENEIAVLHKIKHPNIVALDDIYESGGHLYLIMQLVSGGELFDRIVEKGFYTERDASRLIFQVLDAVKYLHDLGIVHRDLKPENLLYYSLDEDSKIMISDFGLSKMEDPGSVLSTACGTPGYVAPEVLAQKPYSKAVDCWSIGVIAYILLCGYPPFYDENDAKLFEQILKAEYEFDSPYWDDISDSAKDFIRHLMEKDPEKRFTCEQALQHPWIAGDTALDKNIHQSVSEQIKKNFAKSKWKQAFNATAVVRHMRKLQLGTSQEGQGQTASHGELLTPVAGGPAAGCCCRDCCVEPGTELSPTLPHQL
Sequence of PAK2(h) (Q13177 whole entry): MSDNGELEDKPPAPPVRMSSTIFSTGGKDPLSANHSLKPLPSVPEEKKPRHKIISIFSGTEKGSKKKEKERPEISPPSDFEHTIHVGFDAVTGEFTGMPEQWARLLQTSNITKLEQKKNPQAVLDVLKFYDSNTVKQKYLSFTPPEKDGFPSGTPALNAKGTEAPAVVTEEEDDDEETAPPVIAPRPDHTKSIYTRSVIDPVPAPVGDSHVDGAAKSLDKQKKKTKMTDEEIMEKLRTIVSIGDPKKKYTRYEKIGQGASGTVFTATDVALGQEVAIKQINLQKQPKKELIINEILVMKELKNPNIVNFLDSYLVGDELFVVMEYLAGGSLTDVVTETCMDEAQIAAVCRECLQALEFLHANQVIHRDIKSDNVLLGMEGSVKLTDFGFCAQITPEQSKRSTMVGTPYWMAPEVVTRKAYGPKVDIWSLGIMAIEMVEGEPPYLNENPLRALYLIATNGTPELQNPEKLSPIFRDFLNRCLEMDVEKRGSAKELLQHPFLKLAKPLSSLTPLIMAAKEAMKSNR

Work on `CC(C)C(Nc1ncnc2[nH]c(C(=O)NC3CCN(C)C3)cc12)c1ccc2c(c1)S(=O)(=O)CCC2` (stereo not drawn) [ASAP-0011198] yielded a remaining activity at 10 µM (Rse(h); batch_name=ASAP-0011198-002) of 107%, a remaining activity at 10 µM (IGF-1R(h); batch_name=ASAP-0011198-002) of 104% and a remaining activity at 10 µM (Fyn(h); batch_name=ASAP-0011198-002) of 107%. The remaining activity at 10 µM (PDGFRβ(h); batch_name=ASAP-0011198-002) was 83%, the remaining activity at 10 µM (Mnk2(h); batch_name=ASAP-0011198-002) was 99% and the remaining activity at 10 µM ([1]; batch_name=ASAP-0011198-002) was 99%. For the same molecule, the remaining activity at 10 µM (PAK2(h); batch_name=ASAP-0011198-002) was 99%, the remaining activity at 10 µM (CaMKI(h); batch_name=ASAP-0011198-002) was 100% and the remaining activity at 10 µM (AMPKα1(h); batch_name=ASAP-0011198-002) was 107%. For the same molecule, the remaining activity at 10 µM (CDK1/cyclinB(h); batch_name=ASAP-0011198-002) was 103%, the remaining activity at 10 µM (NEK2(h); batch_name=ASAP-0011198-002) was 118% and the remaining activity at 10 µM (CDK2/cyclinA(h); batch_name=ASAP-0011198-002) was 117%.
In the case of `Cn1ncc(-c2cc3c(N[C@@H](c4ccc5c(n4)OCCO5)C(C)(C)C)ncnc3[nH]2)c1C#N` [ASAP-0011221], the remaining activity at 10 µM (Rse(h); batch_name=ASAP-0011221-002) is reported as 110%, the remaining activity at 10 µM (IGF-1R(h); batch_name=ASAP-0011221-002) is reported as 77% and the remaining activity at 10 µM (Fyn(h); batch_name=ASAP-0011221-002) is reported as 82%. It also gave a remaining activity at 10 µM (PDGFRβ(h); batch_name=ASAP-0011221-002) of 100%, a remaining activity at 10 µM (Mnk2(h); batch_name=ASAP-0011221-002) of 100% and a remaining activity at 10 µM ([1]; batch_name=ASAP-0011221-002) of 91%. It also gave a remaining activity at 10 µM (PAK2(h); batch_name=ASAP-0011221-002) of 111%, a remaining activity at 10 µM (CaMKI(h); batch_name=ASAP-0011221-002) of 87% and a remaining activity at 10 µM (AMPKα1(h); batch_name=ASAP-0011221-002) of 109%. The remaining activity at 10 µM (CDK1/cyclinB(h); batch_name=ASAP-0011221-002) was 97%, the remaining activity at 10 µM (NEK2(h); batch_name=ASAP-0011221-002) was 104% and the remaining activity at 10 µM (CDK2/cyclinA(h); batch_name=ASAP-0011221-002) was 114%.
For `Cc1nn(C)cc1-c1cc2c(NC(c3ccc4c(c3)S(=O)(=O)CCC4)C(C)C)ncnc2[nH]1` (stereo not drawn) [ASAP-0011446], the remaining activity at 10 µM (Rse(h); batch_name=ASAP-0011446-002) was 96%, the remaining activity at 10 µM (IGF-1R(h); batch_name=ASAP-0011446-002) was 97% and the remaining activity at 10 µM (Fyn(h); batch_name=ASAP-0011446-002) was 32%. For the same molecule, the remaining activity at 10 µM (PDGFRβ(h); batch_name=ASAP-0011446-002) was 97%, the remaining activity at 10 µM (Mnk2(h); batch_name=ASAP-0011446-002) was 99% and the remaining activity at 10 µM ([1]; batch_name=ASAP-0011446-002) was 105%. For the same molecule, the remaining activity at 10 µM (PAK2(h); batch_name=ASAP-0011446-002) was 100%, the remaining activity at 10 µM (CaMKI(h); batch_name=ASAP-0011446-002) was 101% and the remaining activity at 10 µM (AMPKα1(h); batch_name=ASAP-0011446-002) was 102%. The remaining activity at 10 µM (CDK1/cyclinB(h); batch_name=ASAP-0011446-002) was 91%, the remaining activity at 10 µM (NEK2(h); batch_name=ASAP-0011446-002) was 98% and the remaining activity at 10 µM (CDK2/cyclinA(h); batch_name=ASAP-0011446-002) was 107%.
Molecule `C[C@H](C(=O)O)[C@@H](NC(=O)c1ncnc2[nH]ccc12)c1ccc(Br)cc1` [ASAP-0014722] has a remaining activity at 10 µM (Rse(h); batch_name=ASAP-0014722-002) of 87%, a remaining activity at 10 µM (IGF-1R(h); batch_name=ASAP-0014722-002) of 95% and a remaining activity at 10 µM (Fyn(h); batch_name=ASAP-0014722-002) of 98%. It also gave a remaining activity at 10 µM (PDGFRβ(h); batch_name=ASAP-0014722-002) of 110%, a remaining activity at 10 µM (Mnk2(h); batch_name=ASAP-0014722-002) of 110% and a remaining activity at 10 µM ([1]; batch_name=ASAP-0014722-002) of 97%. For the same molecule, the remaining activity at 10 µM (PAK2(h); batch_name=ASAP-0014722-002) was 95%, the remaining activity at 10 µM (CaMKI(h); batch_name=ASAP-0014722-002) was 101% and the remaining activity at 10 µM (AMPKα1(h); batch_name=ASAP-0014722-002) was 93%. For the same molecule, the remaining activity at 10 µM (CDK1/cyclinB(h); batch_name=ASAP-0014722-002) was 92%, the remaining activity at 10 µM (NEK2(h); batch_name=ASAP-0014722-002) was 101% and the remaining activity at 10 µM (CDK2/cyclinA(h); batch_name=ASAP-0014722-002) was 102%.
With `COc1ccc([C@H](Cc2nnn[nH]2)NC(=O)c2ncnc3[nH]ccc23)cc1` [ASAP-0015381] the remaining activity at 10 µM (Rse(h); batch_name=ASAP-0015381-001) was 100%, the remaining activity at 10 µM (IGF-1R(h); batch_name=ASAP-0015381-001) was 103% and the remaining activity at 10 µM (Fyn(h); batch_name=ASAP-0015381-001) was 102%. For the same molecule, the remaining activity at 10 µM (PDGFRβ(h); batch_name=ASAP-0015381-001) was 103%, the remaining activity at 10 µM (Mnk2(h); batch_name=ASAP-0015381-001) was 115% and the remaining activity at 10 µM ([1]; batch_name=ASAP-0015381-001) was 97%. For the same molecule, the remaining activity at 10 µM (PAK2(h); batch_name=ASAP-0015381-001) was 107%, the remaining activity at 10 µM (CaMKI(h); batch_name=ASAP-0015381-001) was 103% and the remaining activity at 10 µM (AMPKα1(h); batch_name=ASAP-0015381-001) was 97%. It also gave a remaining activity at 10 µM (CDK1/cyclinB(h); batch_name=ASAP-0015381-001) of 98%, a remaining activity at 10 µM (NEK2(h); batch_name=ASAP-0015381-001) of 106% and a remaining activity at 10 µM (CDK2/cyclinA(h); batch_name=ASAP-0015381-001) of 113%.
